Assay results published in article PMC10891904 (Pharmaceuticals, 2024).

Experiments:
[1] = system: THLE2 (healthy human liver) cells; assay: Cell viability, MTT assay, THLE2; assay type: cell-based
Experimental: (§1) HepG2, MCF7, and THLE2 cells were initially seeded at a density of 1 × 10^4 cells per well (100 μL per well) in DMEM medium. These cultures were then incubated at 37 °C in a 5% CO2 environment for 24 h to attain confluency levels ranging from 70% to 80%. […] The cells were allowed to culture for an additional 24 h.
(§2) After the incubation period, 10 μL of a 12 mM MTT stock solution (5 mg/mL MTT in sterile PBS) was introduced into each well. The plate was incubated for 4 h at 37 °C. Following this, the MTT solution was removed, and the purple formazan crystals that had developed at the well bottoms were dissolved by adding 100 μL of DMSO, allowing for a 20 min incubation. A negative control was included, which involved adding 10 μL of the MTT stock solution to 100 μL of medium alone.
(§3) The absorbance at 570 nm was subsequently measured using an ELISA reader (StatFax-2100, Awareness Technology, Inc., Palm City, FL, USA). […] Sigmoidal and dose-dependent curves were created to visualize the experimental results. These assays were conducted in triplicate and were repeated in three independent experiments.

[2] = system: HepG2 (human liver cancer) cells; assay: Cell viability, MTT assay, HepG2; assay type: cell-based
Experimental: as §1, §2, §3

LPS-inflamed THLE2 cells [3] = details: qPCR, β-actin reference, G3 vs G2
Experimental: (§4) HepG2, MCF7, and THLE2 cells were initially seeded in a culture medium comprising DMEM supplemented with 10% FCS and 1% penicillin/streptomycin solution. These cultures were maintained at 37 °C in a 5% CO2 environment. The culture medium was refreshed twice a week, and when the cell cultures reached approximately 80% confluence, they were subcultured after trypsinization (0.05%, w/v). To mitigate mitogenic effects, the cells were pre-cultured in serum-free DMEM for a minimum of 4 h.
(§5) To induce inflammation, 1 μg/mL of LPS was added to the cultures, as previously described. Subsequently, the cells were allowed to incubate for a duration of 24 h.
(§6) To isolate total RNA from HepG2, MCF7, and THLE2 cells, the RNeasy Mini kit was employed in accordance with the manufacturer’s instructions and established methods. Subsequently, cDNA was synthesized from […] of the total RNA using Quantiscript reverse transcriptase. The resulting cDNA served as a template for evaluating the relative expression of target gene mRNAs, with β-actin serving as an internal reference. To amplify the isolated cDNA, 2X Maxima SYBR Green/ROX qPCR Master Mix was used, following the manufacturer’s protocol, and specific gene primers designed for the purpose.
(§7) The reaction volume and qPCR thermal conditions were consistent with those previously described. Upon completion of the final cycle, the temperature was increased from 60 to 95 °C to generate a melt curve. The relative change in gene expression was presented as a fold change, determined using quantities at the critical threshold (Ct) and the 2^−∆∆Ct method (Table 5).

LPS-inflamed HepG2 cells [4] = details: qPCR, β-actin reference, G3 vs G2
Experimental: as §4, §5, §6, §7

LPS-inflamed MCF7 cells [5] = details: qPCR, β-actin reference, G3 vs G2
Experimental: as §4, §5, §6, §7

rabbit 5-LOX = molecular target: T1, rabbit 5-LOX (Oryctolagus cuniculus, UniProt G1SNX0); assay: In vitro 5-LOX inhibition assay (enzyme kit); assay type: biochemical; details: mean of three values
T1 construct: purchased Cayman Chemical 560131
T1 sequence (G1SNX0 1-674): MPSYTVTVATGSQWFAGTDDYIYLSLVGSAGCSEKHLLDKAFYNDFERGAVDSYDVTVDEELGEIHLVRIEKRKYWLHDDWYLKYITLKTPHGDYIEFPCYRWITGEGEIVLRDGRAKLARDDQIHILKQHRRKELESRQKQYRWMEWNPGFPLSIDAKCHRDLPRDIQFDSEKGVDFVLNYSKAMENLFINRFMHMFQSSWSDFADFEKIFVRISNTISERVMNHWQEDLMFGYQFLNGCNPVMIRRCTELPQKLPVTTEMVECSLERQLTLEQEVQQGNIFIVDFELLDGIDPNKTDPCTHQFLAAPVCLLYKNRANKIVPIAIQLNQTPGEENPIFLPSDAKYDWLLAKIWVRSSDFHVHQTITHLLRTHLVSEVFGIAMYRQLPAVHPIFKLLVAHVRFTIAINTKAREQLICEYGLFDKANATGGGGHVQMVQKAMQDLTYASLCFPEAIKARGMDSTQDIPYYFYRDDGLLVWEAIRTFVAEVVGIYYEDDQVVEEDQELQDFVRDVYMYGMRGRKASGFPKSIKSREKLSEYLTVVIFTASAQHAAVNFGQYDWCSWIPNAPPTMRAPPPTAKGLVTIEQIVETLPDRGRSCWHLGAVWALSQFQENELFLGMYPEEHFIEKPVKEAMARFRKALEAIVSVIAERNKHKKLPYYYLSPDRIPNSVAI

COX-1/COX-2/5-LOX = details: from experimental IC50
human recombinant COX-2 = human recombinant COX-2 (Homo sapiens, UniProt P35354); assay: biochemical
Sequence of human recombinant COX-2 (P35354 18-604): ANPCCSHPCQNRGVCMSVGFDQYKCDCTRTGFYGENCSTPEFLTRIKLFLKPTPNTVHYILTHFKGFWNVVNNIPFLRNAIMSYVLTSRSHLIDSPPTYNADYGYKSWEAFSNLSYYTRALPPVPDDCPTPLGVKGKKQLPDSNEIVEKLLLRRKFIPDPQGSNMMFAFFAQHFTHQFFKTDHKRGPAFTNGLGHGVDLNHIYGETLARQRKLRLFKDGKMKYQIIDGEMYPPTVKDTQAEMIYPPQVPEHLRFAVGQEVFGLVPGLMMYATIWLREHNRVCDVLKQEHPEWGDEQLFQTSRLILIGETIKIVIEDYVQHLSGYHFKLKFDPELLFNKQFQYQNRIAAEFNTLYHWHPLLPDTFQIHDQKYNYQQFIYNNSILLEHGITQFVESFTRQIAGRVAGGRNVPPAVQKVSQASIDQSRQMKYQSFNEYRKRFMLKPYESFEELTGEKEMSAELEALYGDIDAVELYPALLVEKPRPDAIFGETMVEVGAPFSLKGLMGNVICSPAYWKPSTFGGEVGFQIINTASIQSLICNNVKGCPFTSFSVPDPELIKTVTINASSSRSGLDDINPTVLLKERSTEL

ovine COX-1 = ovine COX-1 (Ovis aries, UniProt P05979); assay: biochemical
Sequence of ovine COX-1 (P05979 25-600): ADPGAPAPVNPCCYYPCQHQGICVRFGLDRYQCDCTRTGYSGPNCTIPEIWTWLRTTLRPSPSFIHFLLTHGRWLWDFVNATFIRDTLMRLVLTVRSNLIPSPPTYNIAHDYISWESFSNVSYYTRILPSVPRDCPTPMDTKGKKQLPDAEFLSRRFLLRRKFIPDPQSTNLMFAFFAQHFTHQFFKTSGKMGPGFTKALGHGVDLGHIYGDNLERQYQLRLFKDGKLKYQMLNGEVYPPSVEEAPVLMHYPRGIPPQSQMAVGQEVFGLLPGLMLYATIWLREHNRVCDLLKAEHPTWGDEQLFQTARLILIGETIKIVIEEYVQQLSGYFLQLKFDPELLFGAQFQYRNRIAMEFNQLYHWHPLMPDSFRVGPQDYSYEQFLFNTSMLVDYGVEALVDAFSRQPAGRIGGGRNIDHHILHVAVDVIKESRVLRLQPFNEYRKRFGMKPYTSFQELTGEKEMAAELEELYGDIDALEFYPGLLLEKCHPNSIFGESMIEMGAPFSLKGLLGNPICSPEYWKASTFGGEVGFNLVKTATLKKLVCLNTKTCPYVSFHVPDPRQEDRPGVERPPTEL

[6] = system: MCF7 (human breast cancer) cells; assay: Cell viability, MTT assay, MCF7; assay type: cell-based; details: 24 h
Experimental: as §1, §2, §3

LPS-inflamed THLE2 cells [7] = details: 1/10 of IC50, LPS 1 μg/mL, 24 h, G3 vs G2
Experimental: as §4, §5
(§8) Inflammatory marker levels, including TNFα, IL1b, COX-1, COX-2, and 5-LOX, were quantified following established procedures. In short, the cells were seeded at a density of 5 × 10^4 cells per well in flat-bottomed 96-well plates. […] The cells were then incubated at 37 °C for a period of 24 h.
(§9) After incubation, the culture medium was carefully collected into micro-centrifuge tubes and subjected to centrifugation at 1500 rpm for 10 min. The resulting supernatant was transferred to new micro-centrifuge tubes, and the levels of TNFα, IL1b, COX-1, COX-2, and 5-LOX were determined using an ELISA kit (TNFα, IL1b, COX-1, COX-2, and 5-LOX were determined using enzyme-linked immunoassay (ELISA) kits from Sigma Aldrich (Saint Louis, MO, USA), Abcam (Cambridge, UK), and Aviva Systems Biology (San Diego, CA, USA).

LPS-inflamed HepG2 cells [8] = details: 1/10 of IC50, LPS 1 μg/mL, 24 h
Experimental: as §4, §5, §8, §9

LPS-inflamed MCF7 cells [9] = details: 1/10 of IC50, LPS 1 μg/mL, 24 h, G3 vs G2
Experimental: as §4, §5, §8, §9

LPS-inflamed THLE2 cells [10] = details: 1/10 of LC50, LPS 1 µg/mL, 24 h, G3 compared to G2
Experimental: (§10) The levels of malondialdehyde (MDA), superoxide dismutase (SOD), catalase (CAT), and glutathione peroxidase (GPX) were quantified using commercial kits, following established protocols. […] Subsequently, the cells were exposed to 1 µg/mL of LPS for 24 h.
(§11) After this incubation period, the cells were rinsed with PBS, harvested from the plates, and suspended in 1 mL of ice-cold PBS (0.1 M, containing 0.05 mM EDTA). The cell suspension was homogenized, and the resulting homogenate was then subjected to centrifugation at 4000× g for 10 min at 4 °C. The obtained supernatants were preserved at −80 °C until they were ready for analysis. The protein concentration in each of the supernatant samples was determined using the Bradford assay.

LPS-inflamed HepG2 cells [11] = details: 1/10 of LC50, LPS 1 µg/mL, 24 h, G3 relative to G2
Experimental: as §10, §11

LPS-inflamed MCF7 cells [12] = details: 1/10 of LC50, LPS 1 µg/mL, 24 h, G3 relative to G2
Experimental: as §10, §11

Structure (SMILES): N.N.[Cl][Pt][Cl] [Cisplatin]
- IC50 ([1]; 24 h): 2.14 ± 0.0953 mM
- IC50 ([2]; 24 h): 66.9 ± 1.8 µM

Structure (SMILES): Nc1ccc(S(=O)(=O)Nc2ncccn2)cc1 [Sulfadiazine]
- IC50 ([1]; Homo sapiens, THLE-2, 24 h): 4.16 ± 0.0905 mM
- 5-LOX gene expression (LPS-inflamed THLE2 cells [3]): significantly blunted
- COX-1 gene expression (LPS-inflamed THLE2 cells [3]): not significant
- COX-2 gene expression (LPS-inflamed THLE2 cells [3]): significantly blunted
- IL1b gene expression (LPS-inflamed THLE2 cells [3]): significantly blunted
- TNFα gene expression (LPS-inflamed THLE2 cells [3]): significantly blunted
- 5-LOX gene expression (LPS-inflamed HepG2 cells [4]): significantly blunted
- COX-1 gene expression (LPS-inflamed HepG2 cells [4]): significantly blunted
- COX-2 gene expression (LPS-inflamed HepG2 cells [4]): significantly blunted
- IL1b gene expression (LPS-inflamed HepG2 cells [4]): significantly blunted
- TNFα gene expression (LPS-inflamed HepG2 cells [4]): significantly blunted
- 5-LOX gene expression (LPS-inflamed MCF7 cells [5]): significantly blunted
- COX-1 gene expression (LPS-inflamed MCF7 cells [5]): significantly blunted
- COX-2 gene expression (LPS-inflamed MCF7 cells [5]): significantly blunted
- IL1b gene expression (LPS-inflamed MCF7 cells [5]): significantly blunted
- TNFα gene expression (LPS-inflamed MCF7 cells [5]): significantly blunted
- IC50 (rabbit 5-LOX): 19.1 µM
- experimental 5-LOX/COX-1 selectivity (COX-1/COX-2/5-LOX): 1
- experimental COX-2/COX-1 selectivity (COX-1/COX-2/5-LOX): 3.6
- IC50 (human recombinant COX-2): 5.27 µM
- IC50 (ovine COX-1): 18.4 µM
- IC50 [6]: 216 ± 3.8 µM
- 5-LOX level (LPS-inflamed THLE2 cells [7]): significantly reduced
- COX-2 level (LPS-inflamed THLE2 cells [7]): significantly reduced
- IL1b level (LPS-inflamed THLE2 cells [7]): significantly reduced
- TNFα level (LPS-inflamed THLE2 cells [7]): significantly reduced
- COX-2 level (LPS-inflamed HepG2 cells [8]; G3 vs G2): significantly reduced
- IL1b level (LPS-inflamed HepG2 cells [8]; G3 vs G2): significantly reduced
- TNFα level (LPS-inflamed HepG2 cells [8]; G3 vs untreated LPS-inflamed cells (G2)): significantly reduced
- COX-2 level (LPS-inflamed MCF7 cells [9]): significantly reduced
- IL1b level (LPS-inflamed MCF7 cells [9]): significantly reduced
- TNFα level (LPS-inflamed MCF7 cells [9]): significantly reduced
- IC50 ([2]; Homo sapiens, HepG2, 24 h): 246 ± 4.1 µM
- CAT levels (LPS-inflamed THLE2 cells [10]): significant elevation
- GPX levels (LPS-inflamed THLE2 cells [10]): significant elevation
- MDA levels (LPS-inflamed THLE2 cells [10]): substantial reduction
- SOD levels (LPS-inflamed THLE2 cells [10]): significant elevation
- CAT levels (LPS-inflamed HepG2 cells [11]): increased levels
- GPX levels (LPS-inflamed HepG2 cells [11]): increased levels
- MDA levels (LPS-inflamed HepG2 cells [11]): significant augmentation
- CAT levels (LPS-inflamed MCF7 cells [12]): increased levels
- MDA levels (LPS-inflamed MCF7 cells [12]): significant augmentation

Structure (SMILES): Cc1ccc(-c2cc(C(F)(F)F)nn2-c2ccc(S(N)(=O)=O)cc2)cc1 [Celecoxib]
- IC50 (rabbit 5-LOX): 16.7 µM
